Results from ChEMBL document CHEMBL1124131, “Derivatives of 2-methylenepropane-1,3-diol as new antagonists of platelet activating factor” (J Med Chem, 1988).

What was measured:
Oryctolagus cuniculus = organism: Oryctolagus cuniculus; assay: Concentration required to reduce 50% of maximum platelet aggregation caused by PAF in platelet rich plasma from rabbit in vitro; type: functional
Rattus norvegicus [1] = assay: Tested in vivo for dose required to inhibit PAF-induced hypotension in rat
Cavia porcellus = assay: Tested in vivo for dose required to inhibit PAF-induced bronchoconstriction in guinea pig; type: functional
Rattus norvegicus [2] = assay: Tested in vivo for dose required to inhibit PAF-induced hypotension in rat; remark: listed apart in the source

| EC50 (Oryctolagus cuniculus) [nM] | Structure (SMILES) | ED50 (Rattus norvegicus [1]) [mg/kg] | ED50 (Cavia porcellus) [mg/kg] | ED50 (Rattus norvegicus [2]) [mg/kg] |
| --- | --- | --- | --- | --- |
| 500 | C=C(COC(=O)CCCCC[n+]1ccccc1)COC(=O)NCCCCCCCCCCCCCCCCCC.[Br-] | 0.5 | 0.2 |  |
| 250 | C=C(COC(=O)CCCCCC[n+]1ccsc1)COC(=O)NCCCCCCCCCCCCCCCCCC.[Br-] |  | 0.1 | 0.5 |
